Data from ChEMBL document CHEMBL1155989, “Discovery of novel diarylketoxime derivatives as selective and orally active melanin-concentrating hormone 1 receptor antagonists” (Bioorg Med Chem Lett, 2009).
One block for each compound: values may come before it.

Legend:
[1] = Metabolic stability in human liver microsomes assessed as compound remaining after 30 mins; format: ADME, Microsome; conditions: read-out: Stability
[2] = Metabolic stability in mouse liver microsomes assessed as compound remaining after 30 mins; format: ADME, Microsome; conditions: read-out: Stability
[3] = Metabolic stability in rat liver microsomes assessed as compound remaining after 30 mins; format: ADME, Microsome; conditions: read-out: Stability
[4] = Ratio of drug level in brain to plasma of diet-induced obese C57BL/6J mouse at 30 mg/kg, po after 24 hrs; format: ADME, organism-based; design: dose 30 mg/kg, route oral
[5] = Plasma concentration in Sprague-Dawley rat at 10 mg/kg, po after 2 hrs; format: ADME, organism-based; design: dose 10 mg/kg, route oral
[6] = Cmax in Sprague-Dawley rat at 3 mg/kg, po; format: ADME, organism-based; design: dose 3 mg/kg, route oral; conditions: in vivo
[7] = Cmax in diet-induced obese C57BL/6J mouse at 10 mg/kg, po; format: ADME, organism-based; design: dose 10 mg/kg, route oral; conditions: in vivo
[8] = AUC (0 to infinity) in diet-induced obese C57BL/6J mouse at 10 mg/kg, po; format: ADME, organism-based; design: time infinity, dose 10 mg/kg, route oral; conditions: plasma
[9] = Volume of distribution at steady state in Sprague-Dawley rat at 1 mg/kg, iv; format: ADME, organism-based; design: dose 1 mg/kg, route intravenous; conditions: in vivo, read-out: Vdss
[10] = Ratio of drug level in brain to plasma of Sprague-Dawley rat at 10 mg/kg, po after 2 hrs; format: ADME, organism-based; design: dose 10 mg/kg, route oral
[11] = system: Rattus norvegicus; test: AUC (0 to infinity) in Sprague-Dawley rat at 3 mg/kg, po; format: ADME, organism-based, Plasma; design: time infinity, dose 3 mg/kg, route oral; conditions: in vivo
[12] = Plasma clearance in Sprague-Dawley rat at 1 mg/kg, iv; format: ADME, organism-based; design: dose 1 mg/kg, route intravenous
[13] = system: Brain; test: Drug level in diet-induced obese C57BL/6J mouse brain at 30 mg/kg, po after 24 hrs; format: ADME, organism-based; design: dose 30 mg/kg, route oral; conditions: in vivo
[14] = Cmax in diet-induced obese C57BL/6J mouse at 30 mg/kg, po; format: ADME, organism-based; design: dose 30 mg/kg, route oral; conditions: in vivo
[15] = AUC (0 to infinity) in diet-induced obese C57BL/6J mouse at 30 mg/kg, po; format: ADME, organism-based; design: time infinity, dose 30 mg/kg, route oral; conditions: plasma
[16] = Drug level in Sprague-Dawley rat cerebrospinal fluid at 10 mg/kg, po after 2 hrs; format: ADME, organism-based; design: dose 10 mg/kg, route oral; conditions: read-out: Drug uptake
[17] = Half life in Sprague-Dawley rat at 1 mg/kg, iv; format: ADME, organism-based; design: dose 1 mg/kg, route intravenous; conditions: in vivo
[18] = Tmax in diet-induced obese C57BL/6J mouse at 10 mg/kg, po; format: ADME, organism-based; design: dose 10 mg/kg, route oral; conditions: in vivo
[19] = system: Brain; test: Drug level in Sprague-Dawley rat brain at 10 mg/kg, po after 2 hrs; format: ADME, organism-based; design: dose 10 mg/kg, route oral; conditions: in vivo
[20] = Oral bioavailability in Sprague-Dawley rat; format: ADME, organism-based; conditions: in vivo
[21] = Tmax in diet-induced obese C57BL/6J mouse at 30 mg/kg, po; format: ADME, organism-based; design: dose 30 mg/kg, route oral; conditions: in vivo
[22] = Plasma concentration in diet-induced obese C57BL/6J mouse at 30 mg/kg, po after 24 hrs; format: ADME, organism-based; design: dose 30 mg/kg, route oral

Structure (SMILES): CCO/N=C(/c1ccc(F)c(F)c1)c1ccc(CN2CCC3(CC2)OCc2cc(=O)n(C)cc23)cn1
remaining at 0.5 h [1]: 77% | remaining at 0.5 h [2]: 74% | remaining at 0.5 h [3]: 84%

Structure (SMILES): CCO/N=C(/c1ccc(F)c(F)c1)c1ccc(CN2CCC3(CC2)OCc2cn(C)c(=O)cc23)cn1
remaining at 0.5 h [1]: 68% | remaining at 0.5 h [2]: 57% | Kp at 24 h [4]: 0.43 | concentration at 2 h [5]: 4.5 µM | Cmax [6]: 1.85 µM | Cmax [7]: 4.27 µM | AUC(0-inf) [8]: 15.4 µM·h | remaining at 0.5 h [3]: 71% | Vd [9]: 1.6 L/kg | Kp at 2 h [10]: 0.49 | AUC [11]: 6.57 µM·h | clearance [12]: 13 mL/min/kg | Drug uptake [13]: 0.052 nmol/g | Cmax [14]: 15.6 µM | AUC(0-inf) [15]: 90.7 µM·h | concentration at 2 h [16]: 0.13 µM | half-life [17]: 1.4 h | Tmax [18]: 2 h | Drug uptake [19]: 2.2 nmol/g | bioavailability [20]: 87% | Tmax [21]: 2 h | concentration at 24 h [22]: 0.119 µM

Structure (SMILES): O=C(C(c1ccc(F)c(F)c1)n1cccn1)N(CCF)CCCN1CCC2(CC1)OCc1cc(F)ncc12 (centres undefined)
remaining at 0.5 h [1]: 12% | remaining at 0.5 h [2]: 22% | remaining at 0.5 h [3]: 31%

Next, values leading:

remaining at 0.5 h [1]: 17% | remaining at 0.5 h [2]: 3% | remaining at 0.5 h [3]: 4%
Structure (SMILES): Fc1cc2c(cn1)C1(CCN(Cc3ccc(Oc4ccc(F)c(F)c4)cc3)CC1)OC2

remaining at 0.5 h [1]: 0% | remaining at 0.5 h [2]: 11% | remaining at 0.5 h [3]: 2%
Structure (SMILES): CCO/N=C(/c1ccc(F)c(F)c1)c1ccc(CN2CCC3(CC2)OCc2cc(F)ncc23)cn1
